Like-named read-outs stand apart in the source and are kept apart here.

In this assay the target is T1, TrkA kinase (Homo sapiens, UniProt P04629).
T1 construct: purchased Upstate, USA
In words: In vitro TrkA inhibitory activity using TR-FRET assay. The note with it: 5 ng TrkA, 500 μM ATP. In kind it is biochemical. As to the method:
Determination of In Vitro TrkA Inhibitory Activity Using TR-FRET Assay
Compounds were screened in the TR-FRET assay with TrkA kinase. 5 ng of TrkA [Upstate, USA] kinase was used for assay. The compound was incubated with the kinase for 30 minutes at 20-35° C. After the incubation, substrate mix [40 nM Ultra light poly GT (Perkin Elmer, USA) and 500 μM ATP] was added. The above reaction was stopped by the addition of 40 mM EDTA after 30 minutes. The Eu-labelled antiphospho-tyrosine antibody [Perkin Elmer, USA] was added at 0.5 nM and the fluorescence emission at 615 nm/665 nm [excitation at 340 nm] was measured. The compounds were initially screened at 100 nM, 1 μM and 10 μM concentrations. The potent compounds with >25% inhibition at 1 μM of TrkA were taken for the full dose response studies. The final DMSO concentration in the assay was […]. For IC50 determination, ⅓^rd serial dilution was made from the 20 mM DMSO stock solution. 2 μl of these were transferred to the test wells containing 20 μl reaction mixture [Total reaction volume 22 μl]. The fluorescence was measured in Perkin Elmer Wallac 1420 Multilabel Counter Victor 3. The IC50 was determined by fitting the dose response data to a sigmoidal curve fitting equation using GraphPad Prism software version 5.

Where [1] appears, read: both bounds given in nm, read-out: TrkA inhibitory activity in-vitro IC50.
The mark [2] stands for this setting: read-out: TrkA inhibition in-vitro IC50.
Setting [3] is: lower bound in nm [sic], upper bound in μM, read-out: TrkA inhibitory activity in-vitro IC50.
The mark [4] stands for this setting: read-out: TrkA inhibitory activity in-vitro IC50.

T1 sequence (P04629 33-796): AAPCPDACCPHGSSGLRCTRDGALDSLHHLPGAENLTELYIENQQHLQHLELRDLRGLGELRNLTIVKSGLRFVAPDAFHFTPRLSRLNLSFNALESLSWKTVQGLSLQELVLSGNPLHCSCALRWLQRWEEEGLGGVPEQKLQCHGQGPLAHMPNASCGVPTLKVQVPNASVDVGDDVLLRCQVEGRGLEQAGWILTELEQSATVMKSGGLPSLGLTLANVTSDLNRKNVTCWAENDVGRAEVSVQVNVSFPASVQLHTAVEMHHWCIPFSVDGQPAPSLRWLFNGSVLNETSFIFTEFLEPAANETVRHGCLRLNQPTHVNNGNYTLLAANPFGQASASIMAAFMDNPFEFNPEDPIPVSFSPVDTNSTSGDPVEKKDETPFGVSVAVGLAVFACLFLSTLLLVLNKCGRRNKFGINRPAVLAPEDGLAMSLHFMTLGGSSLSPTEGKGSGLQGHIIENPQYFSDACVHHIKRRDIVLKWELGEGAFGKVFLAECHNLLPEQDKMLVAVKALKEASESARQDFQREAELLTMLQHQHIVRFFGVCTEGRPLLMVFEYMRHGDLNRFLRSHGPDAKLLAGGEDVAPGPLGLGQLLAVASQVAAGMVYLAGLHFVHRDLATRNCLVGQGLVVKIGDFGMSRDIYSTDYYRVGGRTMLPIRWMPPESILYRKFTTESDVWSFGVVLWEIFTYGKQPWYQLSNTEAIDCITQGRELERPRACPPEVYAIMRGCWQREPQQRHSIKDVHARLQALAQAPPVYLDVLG

The term IC50 denotes the concentration needed to halve the response being measured. Consider `CC(C)(C)CS(=O)(=O)NC(=O)c1cnn2ccc(N3CCC[C@@H]3c3cc(F)ccc3F)cc12` [Example 37, (R)-5-(2-(2,5-difluorophenyl)pyrrolidin-1-yl)-N-(neopentylsulfonyl) pyrazolo[1,5-a]pyridine-3-carboxamide], for which the IC50 under setting [1] was in the range of 0.1 to 0.5 µM.

Take `Cc1noc(C)c1S(=O)(=O)NC(=O)c1cnn2ccc(N3CCC[C@@H]3c3cc(F)ccc3F)cc12` [Example 11, (R)-5-(2-(2,5-difluorophenyl)pyrrolidin-1-yl)-N-((3,5-dimethylisoxazol-4-yl)sulfonyl) pyrazolo[1,5-a]pyridine-3-carboxamide]: the IC50 under setting [1] was in the range of 0.1 to 0.5 µM.

For the molecule `CC(C)S(=O)(=O)NC(=O)c1cnn2ccc(N3C[C@@H](F)C[C@@H]3c3cccc(F)c3)c(F)c12` [Example 141, Sodium (4-fluoro-5-((2R,4S)-4-fluoro-2-(3-fluorophenyl)pyrrolidin-1-yl)pyrazolo[1,5-a]pyridine-3-carbonyl) (isopropylsulfonyl)amide], the IC50 under setting [2] is not above 0.05 µM.

Regarding `CS(=O)(=O)NC(=O)c1cnn2ccc(N3CCC[C@@H]3c3cc(F)ccc3F)cc12` [Example 6, (R)-5-(2-(2,5-difluorophenyl)pyrrolidin-1-yl)-N-(methylsulfonyl)pyrazolo[1,5-a]pyridine-3-carboxamide], the IC50 under setting [1] lay in the range of 0.1 to 0.5 µM.

For `CC(C)(C)S(=O)(=O)NC(=O)c1cnn2ccc(N3CCC[C@@H]3c3cc(F)ccc3OC(F)F)cc12` [Example 63, (R)-N-(tert-butylsulfonyl)-5-(2-(2-(difluoromethoxy)-5-fluorophenyl)pyrrolidin-1-yl) pyrazolo[1,5-a]pyridine-3-carboxamide], the IC50 under setting [2] is 0.05 to 0.1 µM.

`CC(C)(C)S(=O)(=O)NC(=O)c1cnn2ccc(N3C[C@H](O)C[C@@H]3c3cc(F)ccc3F)cc12` [Example 48, N-(tert-butylsulfonyl)-5-((2R,4R)-2-(2,5-difluorophenyl)-4-hydroxypyrrolidin-1-yl)pyrazolol[1,5-a]pyridine-3-carboxamide]: the IC50 under setting [3] is 0.5 to 1 µM.

As to `CC(C)(C)S(=O)(=O)NC(=O)c1cnn2ccc(N3C[C@@H](F)C[C@@H]3c3cc(F)ccc3F)cc12` [Example 128, Sodium (tert-butylsulfonyl)(5-((2R,4S)-2-(2,5-difluorophenyl)-4-fluoropyrrolidin-1-yl)pyrazolo[1,5-a]pyridine-3-carbonyl)amide], under setting [2], the IC50 was not above 0.05 µM.

For `CC(C)(C)S(=O)(=O)NC(=O)c1cnn2ccc(N3CCC[C@@H]3c3cc(F)ccc3OCC(F)(F)F)cc12` [Example 49, (R)-N-(tert-butylsulfonyl)-5-(2-(5-fluoro-2-(2,2,2-trifluoroethoxy)phenyl)pyrrolidin-1-yl)pyrazolo[1,5-a]pyridine-3-carboxamide], the IC50 under setting [1] was in the range of 0.1 to 0.5 µM.

As for `O=C(NS(=O)(=O)N1CCOCC1)c1cnn2ccc(N3CCC[C@@H]3c3cc(F)ccc3F)cc12` [Example 84, (R)-5-(2-(2,5-difluorophenyl)pyrrolidin-1-yl)-N-(morpholinosulfonyl) pyrazolo[1,5-a]pyridine-3-carboxamide], the IC50 under setting [2] is not above 0.05 µM.

As for `Cc1ncc(S(=O)(=O)NC(=O)c2cnn3ccc(N4CCC[C@@H]4c4cc(F)ccc4F)cc23)n1C` [Example 16, (R)-5-(2-(2,5-difluorophenyl)pyrrolidin-1-yl)-N-((1,2-dimethyl-1H-imidazol-5-yl)sulfonyl)pyrazolo[1,5-a] pyridine-3-carboxamide], under setting [4], the IC50 is 1 to 10 µM.

For the molecule `O=C(NS(=O)(=O)C1CC1)c1cnn2ccc(N3CCC[C@@H]3c3cc(F)ccc3F)cc12` [Example 5, (R)-N-(cyclopropylsulfonyl)-5-(2-(2,5-difluorophenyl)pyrrolidin-1-yl)pyrazolo[1,5-a]pyridine-3-carboxamide], under setting [1], the IC50 was 0.1 to 0.5 µM.

As for `Cn1nccc1S(=O)(=O)NC(=O)c1cnn2ccc(N3CCC[C@@H]3c3cc(F)ccc3F)cc12` [Example 19, (R)-5-(2-(2,5-difluorophenyl)pyrrolidin-1-yl)-N-((1-methyl-1H-pyrazol-5-yl)sulfonyl) pyrazolo[1,5-a]pyridine-3-carboxamide], the IC50 under setting [1] fell in the range of 0.1 to 0.5 µM.

With `O=C(NS(=O)(=O)C1CCOCC1)c1cnn2ccc(N3CCC[C@@H]3c3cc(F)ccc3F)cc12` [Example 22, (R)-5-(2-(2,5-difluorophenyl)pyrrolidin-1-yl)-N-((tetrahydro-2H-pyran-4-yl)sulfonyl) pyrazolo[1,5-a]pyridine-3-carboxamide], the IC50 under setting [1] was 0.1 to 0.5 µM.

On to `O=C(NS(=O)(=O)c1ccc(F)cc1)c1cnn2ccc(N3CCC[C@@H]3c3cc(F)cc(F)c3)cc12` [Example 69, (R)-5-(2-(3,5-difluorophenyl)pyrrolidin-1-yl)-N-((4-fluorophenyl)sulfonyl)pyrazolo[1,5-a]pyridine-3-carboxamide], for which the IC50 under setting [3] fell in the range of 0.5 to 1 µM.

As for `CN1C(=O)Cc2cc(S(=O)(=O)NC(=O)c3cnn4ccc(N5CCC[C@@H]5c5cc(F)ccc5F)cc34)ccc21` [Example 21, (R)-5-(2-(2,5-difluorophenyl)pyrrolidin-1-yl)-N-((1-methyl-2-oxoindolin-5-yl)sulfonyl) pyrazolo[1,5-a]pyridine-3-carboxamide], the IC50 under setting [3] lay within 0.5 to 1 µM.

On to `CC(C)(C)S(=O)(=O)NC(=O)c1cnn2ccc(N3CCC[C@@H]3c3cc(F)ccc3OC3CCOC3)cc12` (stereo partly drawn) [Example 60, N-(tert-butylsulfonyl)-5-((2R)-2-(5-fluoro-2-((tetrahydrofuran-3-yl)oxy)phenyl)pyrrolidin-1-yl)pyrazolo[1,5-a]pyridine-3-carboxamide], for which the IC50 under setting [2] is 0.05 to 0.1 µM.

Take `O=C(NS(=O)(=O)c1cccnc1)c1cnn2ccc(N3CCC[C@@H]3c3cc(F)ccc3F)cc12` [Example 30, (R)-5-(2-(2,5-difluorophenyl)pyrrolidin-1-yl)-N-(pyridin-3-ylsulfonyl)pyrazolo[1,5-a]pyridine-3-carboxamide]: under setting [3], the IC50 was 0.5 to 1 µM.

As to `CC(C)(C)S(=O)(=O)NC(=O)c1cnn2ccc(N3C[C@@H](F)C[C@@H]3c3cccc(F)c3)c(F)c12` [Example 137, Sodium (tert-butylsulfonyl)(4-fluoro-5-((2R,4S)-4-fluoro-2-(3-fluorophenyl)pyrrolidin-1-yl)pyrazolo[1,5-a]pyridine-3-carbonyl)amide], the IC50 under setting [2] was not above 0.05 µM.

For the molecule `CC(C)S(=O)(=O)NC(=O)c1cnn2ccc(N3CCC[C@@H]3c3cc(F)ccc3F)cc12` [Example 7, (R)-5-(2-(2,5-difluorophenyl)pyrrolidin-1-yl)-N-(isopropylsulfonyl)pyrazolo[1,5-a] pyridine-3-carboxamide], the IC50 under setting [2] is not above 0.05 µM.

As to `O=C(NS(=O)(=O)N1CCCCC1)c1cnn2ccc(N3CCC[C@@H]3c3cc(F)ccc3F)cc12` [Example 89, (R)-5-(2-(2,5-difluorophenyl)pyrrolidin-1-yl)-N-(piperidin-1-ylsulfonyl)pyrazolo[1,5-a] pyridine-3-carboxamide], under setting [2], the IC50 was not above 0.05 µM.

With `O=C(NS(=O)(=O)C1CCC1)c1cnn2ccc(N3CCC[C@@H]3c3cc(F)ccc3F)cc12` [Example 33, (R)-N-(cyclobutylsulfonyl)-5-(2-(2,5-difluorophenyl)pyrrolidin-1-yl)pyrazolo[1,5-a]pyridine-3-carboxamide], under setting [1], the IC50 fell in the range of 0.1 to 0.5 µM.

With `O=C(NS(=O)(=O)c1ccc(N2CC[C@H](O)C2)nc1)c1cnn2ccc(N3CCC[C@@H]3c3cc(F)cc(F)c3)cc12` [Example 73, 5-((R)-2-(3,5-difluorophenyl)pyrrolidin-1-yl)-N-((6-((S)-3-hydroxypyrrolidin-1-yl)pyridin-3-yl)sulfonyl)pyrazolo[1,5-a] pyridine-3-carboxamide], the IC50 under setting [2] was not above 0.05 µM.

As for `CC(C)(C)S(=O)(=O)NC(=O)c1cnn2ccc(N3CCC[C@@H]3c3cc(F)cc(OC4CCOC4)c3)cc12` (stereo partly drawn) [Example 68, N-(tert-butylsulfonyl)-5-((2R)-2-(3-fluoro-5-((tetrahydrofuran-3-yl)oxy)phenyl)pyrrolidin-1-yl)pyrazolo[1,5-a]pyridine-3-carboxamide], under setting [3], the IC50 was 0.5 to 1 µM.

In the case of `CCN(CC)S(=O)(=O)NC(=O)c1cnn2ccc(N3CCC[C@@H]3c3cc(F)ccc3OC)cc12` [Example 87, (R)-N-(N,N-diethylsulfamoyl)-5-(2-(5-fluoro-2-methoxyphenyl)pyrrolidin-1-yl) pyrazolo[1,5-a]pyridine-3-carboxamide], under setting [2], the IC50 is not above 0.05 µM.

Consider `Cn1cnc(S(=O)(=O)NC(=O)c2cnn3ccc(N4CCC[C@@H]4c4cc(F)ccc4F)cc23)c1` [Example 18, (R)-5-(2-(2,5-difluorophenyl)pyrrolidin-1-yl)-N-((1-methyl-1H-imidazol-4-yl)sulfonyl) pyrazolo[1,5-a]pyridine-3-carboxamide], for which the IC50 under setting [4] fell in the range of 1 to 10 µM.

For `O=C(NS(=O)(=O)c1ccc(-n2cncn2)nc1)c1cnn2ccc(N3CCC[C@@H]3c3cc(F)ccc3F)cc12` [Example 27, (R)-N-((6-(1H-1,2,4-triazol-1-yl)pyridin-3-yl)sulfonyl)-5-(2-(2,5-difluorophenyl)pyrrolidin-1-yl)pyrazolo[1,5-a]pyridine-3-carboxamide], under setting [1], the IC50 was 0.1 to 0.5 µM.

Source of the values: US10047087B2, “Substituted pyrazolo[1,5-A] pyridine as tropomyosin receptor kinase (TrK) inhibitors” (Dr. Reddy's Laboratories Ltd., priority 2011, dated 2018).
